How the values were obtained:
[1] = system: two-spotted mite (Tetranychus urticae Koch); test: Mite Foliage Spray Test; type: in vivo; parameters: key: A: excellent control; B: partial control; C: no control; conditions: 500 ppm, six days
Procedure: (§1) Suspensions of the test compounds were prepared by dissolving one gram of compound in 50 milliliters of acetone in which had been dissolved 0.1 gram (10 percent of the weight of compound) of an alkylphenoxy polyethoxyethanol surfactant, as an emulsifying or dispersing agent. The resulting solution was mixed into 150 milliliters of water to give roughly 200 milliliters of a suspension containing the compound in finely divided form. The thus-prepared stock suspension contained 0.5 percent by weight of compound. The test concentrations in parts per million by weight employed in the tests described hereinbelow were obtained by appropriate dilutions of the stock suspension with water. The test procedures were as follows:
Adults and nymphal stages of the two-spotted mite (Tetranychus urticae Koch), reared on Tendergreen bean plants at 80±5 percent relative humidity, were the test organisms. Infested leaves from a stock culture were placed on the primary leaves of two bean plants six to eight inches in height, growing in a two-and-a-half inch clay pot. 150-200 Mites, a sufficient number for testing, transferred from the excised leaves to the fresh plants in a period of twenty four hours. Following the twenty four hour transfer period, the excised leaves were removed from the infested plants. The test compounds were formulated by diluting the stock suspension with water to give a suspension containing 500 parts of test compound per million parts of final formulation. The potted plants (one pot per compound) were placed on a revolving turntable and sprayed with 100-110 milliliters of test compound formulation by use of a DeVilbiss spray gun set at 40 psig. air pressure. This application, which lasted 25 seconds, was sufficient to wet the plants to run-off. As a control, 100-110 milliliters of a water solution containing acetone and emulsifier in the same concentrations as the test compound formulation, but containing no test compound, were also sprayed on infested plants. The sprayed plants were held at 80±5 percent relative humidity for six days, after which a mortality count of motile forms was made. Microscopic examination for motile forms was made on the leaves of the test plants. Any individual which was capable of locomotion upon prodding was considered living.
(§2) In these tests the pesticidal activity of the compounds against aphid, mite, Southern Armyworm, Bean Beetle and house fly was rated as follows: […]

[2] = system: southern armyworm (Prodenia eridania, (Cram.)); test: Southern Armyworm Leaf Spray Test; type: in vivo; parameters: key: A: excellent control; B: partial control; C: no control; conditions: 500 ppm, three days
Procedure: as §1
Larvae of the southern armyworm (Prodenia eridania, (Cram.)), reared on Tendergreen bean plants at a temperature of 80±5° F. and a relative humidity of 50±5 percent, constituted the test insects.
The test compounds were formulated by diluting the stock suspension with water to give a suspension containing 500 parts of test compound per million parts of final formulation. Potted Tendergreen bean plants of standard height and age were placed on a revolving turntable and sprayed with 100-110 milliliters of test compound formulation by use of a DeVilbiss spray gun set at 10 psig air pressure. This application, which tested 25 seconds, was sufficient to wet plants to run-off. As a control, 100-110 milliliters of a water-acetone-emulsifier solution containing no test compound were also sprayed on infested plants. When dry, the paired leaves were separated and each one was placed in a 9 centimeter Petri dish lined with moistened filter paper. Five randomly selected larvae were introduced into each dish and the dishes were closed. The closed dishes were labeled and held at 80°-85° F. for three days. Although the larvae could easily consume the whole leaf within twenty-four hours, no more food was added. Larvae which were unable to move the length of the body, even upon stimulation by prodding, were considered dead. Percent mortality was recorded for various concentration levels.
as §2

[3] = system: Mexican bean beetle (Epilachna varivestis, Muls.); test: Mexican Bean Beetle Leaf Spray Test; type: in vivo; parameters: key: A: excellent control; B: partial control; C: no control; conditions: 500 ppm, three days
Procedure: as §1
Fourth instar larvae of the Mexican bean beetle (Epilachna varivestis, Muls.), reared on Tendergreen bean plants at a temperature of 80±5° F. and 50±5 percent relative humidity, were the test insects.
The test compounds were formulated by diluting the stock suspension with water to give a suspension containing 500 parts of test compound per million parts of final formulation. Potted Tendergreen bean plants of standard height and age were placed on a revolving turntable and sprayed with 100-110 milliliters of test compound formulation by use of a DeVilbiss spray gun set at 10 psig air pressure. The application, which lasted 25 seconds, was sufficient to wet plants to run-off. As a control, 100-110 milliliters of a water-acetone-emulsifier solution containing no test compound were also sprayed on infested plants. When dry, the paired leaves were separated and each was placed in a 9 centimeter Petri dish lined with moistened filter paper. Five randomly selected larvae were introduced into each dish, and the dishes were closed. The closed dishes were labeled and held at a temperature of 80±5° F. for three days. Although the larvae could easily consume the leaf within 24 to 48 hours, no more food was added. Larvae which were unable to move the length of the body, even upon stimulation, were considered dead.
as §2

[4] = system: root-knot nematode (Meloidogyne incognita var. acrita); test: Nematode Test; type: in vivo; parameters: key: 1: severe galling; equal to untreated control; 2: moderate galling; 3: light galling; 4: very light galling; 5: no galling; conditions: 10 ml of 500 ppm formulation per jar (approx. 180 cc soil), cucumber indicator crop, approx. three weeks
Procedure: as §1
Infective migratory larvae of the root-knot nematode, (Meloidogyne incognita var. acrita) were reared in the greenhouse on roots of Rutgers variety tomato plant. Infected tomato plants were removed from the culture and the roots were chopped very finely. A small amount of inoculum from the roots was added to pint Mason jars containing approximately 180 cc of soil. The jars containing the inoculum and soil were capped and incubated for one week at room temperature. During this period eggs of the nematode hatched and the larvae forms migrated into the soil.
The test compounds were formulated by diluting the stock suspension with water to give a suspension containing 500 parts of test compound per million parts of final formulation. 10 milliliters of the test formulation was added to each of two jars for each dosage treated. As a control 10 milliliters of a water-acetone-emulsifier solution containing no test compound was also added to jars containing nematode larvae. The jars were capped and the contents thoroughly mixed on a kale mill for five minutes. The jars remained capped at room temperature for a period of 48 hours and the contents were then transferred to 3 inch pots. Subsequently, the pots were seeded to cucumber as an indicator crop and placed in the green house where they were cared for in the normal fashion for growing potted cucumber for approximately three weeks. These cucumber plants were then removed from the pots, the soil washed from the roots and the amount of galling visually rated.
The nematocidal toxicity has the following ratings;

[5] = Peroral toxicity to mammals (rat); conditions: in vivo, po, 50 percent mortality, read-out: A.O. Rat (LD50)
Procedure: Certain of these compositions were also evaluated to determine their peroral toxicity to mammals. The animal selected for this experiment was the rat. The test results obtained are expressed in terms of the number of milligrams of compositions per kilogram of weight of the animal required to achieve a mortality rate of 50 percent (LD50).

With `CN(SSN(C)C(=O)ON=C1CSCCS1)C(=O)ON=C1CSCCS1` [N,N'-Bis-[1,4-Dithiane-2-O-(N-methylcarbamoyl)oximino]disulfide] the “2-Spotted Mite control rating” value [1] was “A”, the “Southern Armyworm control rating” value [2] was “A” and the “Mexican Bean Beetle control rating” value [3] was “A”. For the same compound, the “Root-Knot Nematode galling rating” value [4] was 1 and the LD50 [5] was 160 mg/kg.

For `CC(=NOC(=O)N(C)SSN(C)C(=O)ON=C(C)SCCC#N)SCCC#N` [N,N'-Bis-[1-(2-Cyanoethylthio)acetaldehyde O-(N-methylcarbamoyl)oxime]disulfide], the “2-Spotted Mite control rating” value [1] was “A”, the “Southern Armyworm control rating” value [2] was “A” and the “Mexican Bean Beetle control rating” value [3] was “A”. The “Root-Knot Nematode galling rating” value [4] was 4 and the LD50 [5] was 80 mg/kg.

For `CSC(C)=NOC(=O)N(C)SSN(C)C(=O)ON=C(C)SC` [N,N'-Bis-[1-Methylthioacetaldehyde O-(N-methylcarbamoyl)oxime]disulfide], the “2-Spotted Mite control rating” value [1] was “C”, the “Southern Armyworm control rating” value [2] was “A” and the “Mexican Bean Beetle control rating” value [3] was “A”. For the same compound, the “Root-Knot Nematode galling rating” value [4] was 1 and the LD50 [5] was 190 mg/kg.

From patent US4413007A, “Pesticidal symmetrical N-substituted bis-carbamoyloximino disulfide compounds” (priority 1978, dated 1983)
